In brackets after ≈: the same amount, converted by molar mass.
Key:
Candida parapsilosis = assay: Antifungal activity against Candida parapsilosis GIM2.190 assessed as fungal growth inhibition by NCCLS protocol based method; type: functional; conditions: Lodderomyces parapsilosis
[1] = Half life in Sprague-Dawley rat at 3 mg/kg, iv measured after 24 hrs by LC-MS/MS analysis; type: ADME, organism-based; conditions: in vivo
Pichia kudriavzevii = assay: Antifungal activity against Candida krusei GIM2.1 assessed as fungal growth inhibition by NCCLS protocol based method; type: functional
[2] = Stability in human plasma assessed as compound remaining measured at 120 mins by LC/MS-MS analysis; type: ADME, cell-free; conditions: read-out: Stability
A549 = assay: Cytotoxicity against human A549 cells assessed as inhibition of cell growth incubated for 4 hrs by MTT assay; type: functional, cell-based; conditions: A549, 4 h
[3] = Half life in Sprague-Dawley rat at 10 mg/kg, po measured after 24 hrs by LC-MS/MS analysis; type: ADME, organism-based; conditions: in vivo
Candida albicans [4] = assay: Fungicidal activity against Candida albicans CPCC400616 assessed as reduction in colony forming units at 2 to 8 times MIC incubated for 24 hrs by time kill assay; type: functional, organism-based; conditions: DDE = dose-dependent effect
Candida albicans [5] = assay: Antifungal activity against Candida albicans ATCC SC5314 assessed as fungal growth inhibition by NCCLS protocol based method; type: functional
Candida albicans [6] = assay: Antibiofilm activity against FLC-resistant Candida albicans CPCC400616 assessed as assessed as inhibition of biofilm formation measured at 6 hrs by XTT reduction assay; type: functional
[7] = Cytotoxicity against human HEK293T cells assessed as inhibition of cell growth incubated for 4 hrs by MTT assay; type: toxicity, cell-based, HEK-293T
Candida albicans [8] = assay: Fungicidal activity against Candida albicans CPCC400616 assessed as reduction in colony forming units at 8 times MIC incubated for 24 hrs by time kill assay; type: functional
[9] = AUClast in Sprague-Dawley rat at 10 mg/kg, po measured after 24 hrs by LC-MS/MS analysis; type: ADME, organism-based; parameters: dose 10 mg/kg, time 24 hrs, route po; conditions: in vivo
[10] = Metabolic stability in human liver microsomes assessed as compound remaining preincubated for 10 mins followed by NADPH addition and measured at 60 mins by LC-MS/MS analysis; type: ADME, Microsome; conditions: time 70 min, read-out: Stability
Candida albicans [11] = assay: Antifungal activity against FLC-resistant Candida albicans 103 assessed as fungal growth inhibition by NCCLS protocol based method; type: functional
Aspergillus fumigatus = assay: Antifungal activity against Aspergillus fumigatus CGMCC3.7795 assessed as fungal growth inhibition by NCCLS protocol based method; type: functional
[12] = Stability in human plasma assessed as compound remaining measured at 60 mins by LC/MS-MS analysis; type: ADME, cell-free; conditions: read-out: Stability
Candida albicans [13] = assay: […] for fungicidal activity against Candida albicans CPCC400616; type: functional
Nakaseomyces glabratus = assay: Antifungal activity against Candida glabrata clinical isolate assessed as fungal growth inhibition by NCCLS protocol based method; type: functional
Candida albicans [14] = assay: Antifungal activity against Candida albicans CPCC400616 assessed as fungal growth inhibition by NCCLS protocol based method; type: functional
Candida albicans [15] = assay: Antifungal activity against FLC-resistant Candida albicans 311 assessed as fungal growth inhibition by NCCLS protocol based method; type: functional
[16] = AUClast in Sprague-Dawley rat at 3 mg/kg, iv measured after 24 hrs by LC-MS/MS analysis; type: ADME, organism-based; parameters: time 24 hrs, dose 3 mg/kg, route iv; conditions: in vivo
HepG2 = assay: Cytotoxicity against human HepG2 cells assessed as inhibition of cell growth incubated for 4 hrs by MTT assay; type: functional, cell-based; conditions: HepG2, 4 h
Cryptococcus neoformans = assay: Antifungal activity against Cryptococcus neoformans CGMCC 2.3161 assessed as fungal growth inhibition by NCCLS protocol based method; type: functional
Candida albicans [17] = assay: Fungicidal activity against Candida albicans CPCC400616 assessed as minimum fungicidal concentration incubated for 48 hrs; type: functional
[18] = Stability in human plasma assessed as half life measured at 120 mins by LC/MS-MS analysis; type: ADME, cell-free
Candida albicans [19] = assay: Fungicidal activity against Candida albicans CPCC400616 assessed as minimum inhibitory concentration incubated for 48 hrs; type: functional
Candida albicans [20] = assay: Antifungal activity against FLC-resistant Candida albicans 904 assessed as fungal growth inhibition by NCCLS protocol based method; type: functional
Candida albicans [21] = assay: Antifungal activity against FLC-resistant Candida albicans 901 assessed as fungal growth inhibition by NCCLS protocol based method; type: functional
[22] = Metabolic stability in human microsomes assessed as intrinsic clearance preincubated for 10 mins followed by NADPH addition and measured after 5 to 60 mins by LC-MS/MS analysis; type: ADME, Microsome; conditions: time 15-70 min
Candida albicans [23] = assay: Antibiofilm activity against FLC-resistant Candida albicans CPCC400616 assessed as assessed as inhibition of biofilm formation measured at 3 hrs by XTT reduction assay; type: functional
Candida tropicalis = assay: Antifungal activity against Candida tropicalis CGMCC 2.3739 assessed as fungal growth inhibition by NCCLS protocol based method; type: functional
[24] = Metabolic stability in human liver microsomes assessed as half life preincubated for 10 mins followed by NADPH addition and measured after 5 to 60 mins by LC-MS/MS analysis; type: ADME, Microsome; conditions: time 15-70 min
Candida albicans [25] = assay: Antibiofilm activity against FLC-resistant Candida albicans CPCC400616 assessed as assessed as inhibition of biofilm formation measured at 18 hrs by XTT reduction assay; type: functional
MCF7 = assay: Cytotoxicity against human MCF7 cells assessed as inhibition of cell growth incubated for 4 hrs by MTT assay; type: functional, cell-based; conditions: MCF7, 4 h
Candida albicans [26] = assay: Antifungal activity against FLC-resistant Candida albicans 632 assessed as fungal growth inhibition by NCCLS protocol based method; type: functional
Candida albicans [27] = assay: Antifungal activity against FLC-resistant Candida albicans CaR assessed as fungal growth inhibition by NCCLS protocol based method; type: functional
Candida albicans [28] = assay: Antifungal activity against FLC-resistant Candida albicans 100 assessed as fungal growth inhibition by NCCLS protocol based method; type: functional
[29] = Oral bioavailability in Sprague-Dawley rat at 10 mg/kg measured measured after 24 hrs by LC-MS/MS analysis; type: ADME, organism-based; conditions: in vivo
Candida albicans [30] = assay: Antibiofilm activity against FLC-resistant Candida albicans CPCC400616 assessed as assessed as inhibition of biofilm formation measured at 24 hrs by XTT reduction assay; type: functional

Compound	MIC (Candida parapsilosis)	MIC (Pichia kudriavzevii)	IC50 (A549)	MIC (Candida albicans [5])	MIC50 (Candida albicans [6])	IC50 at 4 h [7]	remaining at 1 h [10]	MIC (Candida albicans [11])	MIC (Aspergillus fumigatus)	Ratio (Candida albicans [13])	MIC (Nakaseomyces glabratus)	MIC (Candida albicans [14])	MIC (Candida albicans [15])	IC50 (HepG2)	MIC (Cryptococcus neoformans)	MIC50 (Candida albicans [23])	MIC (Candida tropicalis)	MIC50 (Candida albicans [25])	IC50 (MCF7)	MIC50 (Candida albicans [30])	also measured
Fc1ccc(C2(Cn3ccnc3)COC(c3ccc(-c4ccccc4F)s3)=N2)cc1 (centres undefined)	0.25 µg/mL (≈ 0.593 µM)	0.25 µg/mL (≈ 0.593 µM)	> 50 µM	0.03 µg/mL (≈ 0.0712 µM)	1 µg/mL (≈ 2.37 µM)	14.2 µM	49.7%	0.25 µg/mL (≈ 0.593 µM)	0.25 µg/mL (≈ 0.593 µM)	4	0.06 µg/mL (≈ 0.142 µM)	0.03 µg/mL (≈ 0.0712 µM)	0.125 µg/mL (≈ 0.297 µM)	17 µM	0.125 µg/mL (≈ 0.297 µM)	0.125 µg/mL (≈ 0.297 µM)	0.03 µg/mL (≈ 0.0712 µM)	2 µg/mL (≈ 4.75 µM)	> 50 µM	8 µg/mL (≈ 19 µM)	half-life [1]: 1.02 h; remaining at 2 h [2]: 101%; half-life [3]: 4.44 h; Activity (Candida albicans [4]): Dde; Activity (Candida albicans [8]): 2 log10CFU/ml; AUC(0-t) at 24 h [9]: 466 ng·h/mL; remaining at 1 h [12]: 98.7%; AUC(0-t) at 24 h [16]: 925 ng·h/mL; MFC (Candida albicans [17]): 0.125 µg/mL (≈ 0.297 µM); half-life [18]: > 4.8 h; MIC (Candida albicans [19]): 0.03 µg/mL (≈ 0.0712 µM); MIC (Candida albicans [20]): 1 µg/mL (≈ 2.37 µM); MIC (Candida albicans [21]): 0.125 µg/mL (≈ 0.297 µM); CLint [22]: 19.7 µL/min/mg; half-life [24]: 1.18 h; MIC (Candida albicans [26]): 0.5 µg/mL (≈ 1.19 µM); MIC (Candida albicans [27]): 0.25 µg/mL (≈ 0.593 µM); MIC (Candida albicans [28]): 0.5 µg/mL (≈ 1.19 µM); bioavailability [29]: 15.1%
CCC(C)n1ncn(-c2ccc(N3CCN(c4ccc(OCC5COC(Cn6cncn6)(c6ccc(Cl)cc6Cl)O5)cc4)CC3)cc2)c1=O (centres undefined) [ITRACONAZOLE]	0.125 µg/mL (≈ 0.177 µM)	0.125 µg/mL (≈ 0.177 µM)	> 50 µM	0.03 µg/mL (≈ 0.0425 µM)	32 µg/mL (≈ 45.3 µM)	> 50 µM	–	–	0.125 µg/mL (≈ 0.177 µM)	–	0.125 µg/mL (≈ 0.177 µM)	0.03 µg/mL (≈ 0.0425 µM)	–	> 50 µM	0.125 µg/mL (≈ 0.177 µM)	16 µg/mL (≈ 22.7 µM)	0.03 µg/mL (≈ 0.0425 µM)	> 64 µg/mL	> 50 µM	> 64 µg/mL	–
OC(Cn1cncn1)(Cn1cncn1)c1ccc(F)cc1F [FLUCONAZOLE]	2 µg/mL (≈ 6.53 µM)	8 µg/mL (≈ 26.1 µM)	> 50 µM	0.5 µg/mL (≈ 1.63 µM)	> 64 µg/mL	> 50 µM	–	> 64 µg/mL	> 64 µg/mL	> 128	4 µg/mL (≈ 13.1 µM)	1 µg/mL (≈ 3.27 µM)	> 64 µg/mL	> 50 µM	4 µg/mL (≈ 13.1 µM)	32 µg/mL (≈ 104 µM)	0.5 µg/mL (≈ 1.63 µM)	> 64 µg/mL	> 50 µM	> 64 µg/mL	MFC (Candida albicans [17]): > 64 µg/mL; MIC (Candida albicans [19]): 0.5 µg/mL (≈ 1.63 µM); MIC (Candida albicans [20]): > 64 µg/mL; MIC (Candida albicans [21]): > 64 µg/mL; MIC (Candida albicans [26]): > 64 µg/mL; MIC (Candida albicans [27]): > 64 µg/mL; MIC (Candida albicans [28]): > 64 µg/mL
Fc1ccc(C2(Cn3ccnc3)COC(c3ccc(-c4ccccc4)s3)=N2)cc1 (centres undefined)	0.25 µg/mL (≈ 0.62 µM)	0.125 µg/mL (≈ 0.31 µM)	> 50 µM	0.06 µg/mL (≈ 0.149 µM)	2 µg/mL (≈ 4.96 µM)	14.2 µM	–	0.25 µg/mL (≈ 0.62 µM)	4 µg/mL (≈ 9.91 µM)	8	0.125 µg/mL (≈ 0.31 µM)	0.06 µg/mL (≈ 0.149 µM)	1 µg/mL (≈ 2.48 µM)	10.5 µM	0.5 µg/mL (≈ 1.24 µM)	0.25 µg/mL (≈ 0.62 µM)	0.06 µg/mL (≈ 0.149 µM)	4 µg/mL (≈ 9.91 µM)	> 50 µM	16 µg/mL (≈ 39.7 µM)	MFC (Candida albicans [17]): 0.5 µg/mL (≈ 1.24 µM); MIC (Candida albicans [19]): 0.06 µg/mL (≈ 0.149 µM); MIC (Candida albicans [20]): 0.25 µg/mL (≈ 0.62 µM); MIC (Candida albicans [21]): 0.25 µg/mL (≈ 0.62 µM); MIC (Candida albicans [26]): 1 µg/mL (≈ 2.48 µM); MIC (Candida albicans [27]): 1 µg/mL (≈ 2.48 µM); MIC (Candida albicans [28]): 0.5 µg/mL (≈ 1.24 µM)
c1ccc(-c2ccc(C3=NC(Cn4ccnc4)(c4ccccc4)CO3)s2)cc1 (centres undefined)	16 µg/mL (≈ 41.5 µM)	16 µg/mL (≈ 41.5 µM)	–	1 µg/mL (≈ 2.59 µM)	–	–	41.3%	–	8 µg/mL (≈ 20.8 µM)	–	16 µg/mL (≈ 41.5 µM)	1 µg/mL (≈ 2.59 µM)	–	–	2 µg/mL (≈ 5.19 µM)	–	4 µg/mL (≈ 10.4 µM)	–	–	–	remaining at 2 h [2]: 89.5%; remaining at 1 h [12]: 93.1%; half-life [18]: > 4.8 h; CLint [22]: 27.6 µL/min/mg; half-life [24]: 0.837 h
Cc1ccc(C(=O)C(Cn2ccnc2)NC(=O)c2ccc(-c3ccc(Cl)cc3)s2)cc1 (centres undefined)	–	–	–	–	–	–	9.3%	–	–	–	–	–	–	–	–	–	–	–	–	–	CLint [22]: 74.6 µL/min/mg; half-life [24]: 0.31 h

Reference: ChEMBL document CHEMBL5131399, “Broadening antifungal spectrum and improving metabolic stablity based on a scaffold strategy: Design, synthesis, and evaluation of novel 4-phenyl-4,5-dihydrooxazole derivatives as potent fungistatic and fungicidal reagents” (Eur J Med Chem, 2022)
